The target in the assay is JAK1 (Homo sapiens (Human), UniProt P23458). In words: Analysis of JAK1 activity inhibition ability (ADP-Glo Kinase Assay). The assay is classed as biochemical. The note with it: JAK1 enzyme, ADP-Glo luminescence, ATP 250 uM, IRS-itide substrate, 30° C. 40 minutes; read-out: IC50. The method in brief: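 ADP-Glo luminescence read-out of ADP production, with IC50 taken as the concentration halving JAK1 activity relative to control. Enzyme was incubated 40 min at 30 °C with compound, IRS-itide (40 ng/mL) and ATP (250 uM), concentrations as prepared in pH 7.5 Tris-HCl/MgCl2/BSA/DTT buffer.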
Chain of JAK1 (P23458 whole entry): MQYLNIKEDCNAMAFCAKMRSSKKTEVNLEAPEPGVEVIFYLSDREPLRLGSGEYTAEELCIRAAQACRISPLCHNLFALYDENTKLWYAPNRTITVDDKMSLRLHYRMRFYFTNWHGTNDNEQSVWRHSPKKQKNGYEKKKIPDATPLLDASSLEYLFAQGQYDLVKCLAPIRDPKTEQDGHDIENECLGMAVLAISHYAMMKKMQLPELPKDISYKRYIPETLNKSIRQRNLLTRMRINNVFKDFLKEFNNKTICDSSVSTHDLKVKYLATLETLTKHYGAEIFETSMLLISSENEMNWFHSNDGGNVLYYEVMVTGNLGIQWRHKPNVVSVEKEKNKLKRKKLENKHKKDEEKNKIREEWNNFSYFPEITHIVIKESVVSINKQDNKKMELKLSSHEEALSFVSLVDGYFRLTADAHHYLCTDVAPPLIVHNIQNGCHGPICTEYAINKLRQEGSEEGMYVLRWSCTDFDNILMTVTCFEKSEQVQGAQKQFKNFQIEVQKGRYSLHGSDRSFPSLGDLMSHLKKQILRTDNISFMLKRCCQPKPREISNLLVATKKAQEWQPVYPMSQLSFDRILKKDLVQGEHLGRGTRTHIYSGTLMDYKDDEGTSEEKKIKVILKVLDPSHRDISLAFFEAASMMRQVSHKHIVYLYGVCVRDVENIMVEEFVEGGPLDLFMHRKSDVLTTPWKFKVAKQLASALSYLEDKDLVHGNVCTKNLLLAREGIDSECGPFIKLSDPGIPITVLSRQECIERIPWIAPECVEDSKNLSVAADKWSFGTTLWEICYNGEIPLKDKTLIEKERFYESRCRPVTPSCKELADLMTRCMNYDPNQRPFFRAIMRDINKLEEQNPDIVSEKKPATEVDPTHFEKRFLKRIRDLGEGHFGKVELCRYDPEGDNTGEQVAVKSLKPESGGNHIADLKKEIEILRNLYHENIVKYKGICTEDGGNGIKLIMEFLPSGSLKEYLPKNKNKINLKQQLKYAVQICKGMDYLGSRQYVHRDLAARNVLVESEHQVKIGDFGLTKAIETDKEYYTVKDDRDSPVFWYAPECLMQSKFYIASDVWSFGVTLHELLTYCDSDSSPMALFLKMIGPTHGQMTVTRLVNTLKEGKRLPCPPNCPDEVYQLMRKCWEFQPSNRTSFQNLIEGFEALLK
Background: In ADP-Glo the light output rises with the ADP produced.

SMILES strings stand for the structures.

Usually IC50 stands for the concentration at which inhibition is half-maximal. Take `COC(=O)c1cc(NS(=O)(=O)CC2(C#N)CC2)ccc1-c1cc(NC(=O)C2CC2)nc2[nH]ccc12` [Example 142, methyl 5-(((1-cyanocyclopropyl)methyl)sulfonamido)-2-(6-(cyclopropanecarboxamido)-1H-pyrrolo[2,3-b]pyridin-4-yl)benzoate]: the IC50 was > 200 nM.
Then `N#CC1(CS(=O)(=O)Nc2ccc(-c3cc(NC(=O)C4CC4)nc4[nH]ccc34)c(C(=O)O)c2)CC1` [Example 143], with > 200 nM; and `CCS(=O)(=O)Nc1ccc(-c2cc(NC(=O)C3CC3)nc3[nH]ccc23)c(C#N)c1` [Example 144, N-(4-(2-cyano-4-(ethylsulfonamido)phenyl)-1H-pyrrolo[2,3-b]pyridin-6-yl)cyclopropanecarboxamide], with 20 to 200 nM.
Turning to `CCCS(=O)(=O)Nc1ccc(-c2cc(NC(=O)C3CC3)nc3[nH]ccc23)c(C#N)c1` [Example 145, N-(4-(2-cyano-4-(propylsulfonamido)phenyl)-1H-pyrrolo[2,3-b]pyridin-6-yl)cyclopropanecarboxamide], the IC50 is 20 to 200 nM.
Turning to `N#Cc1cc(NS(=O)(=O)c2ccc(F)c(F)c2)ccc1-c1cc(NC(=O)C2CC2)nc2[nH]ccc12` [Example 146, N-(4-(2-cyano-4-((3,4-difluorophenyl)sulfonamido)phenyl)-1H-pyrrolo[2,3-b]pyridin-6-yl)cyclopropanecarboxamide], the IC50 was > 200 nM.
As to `N#Cc1cc(NS(=O)(=O)CC2(C#N)CC2)ccc1-c1cc(NC(=O)C2CC2)nc2[nH]ccc12` [Example 147, N-(4-(2-cyano-4-(((1-cyanocyclopropyl)methyl)sulfonamido)phenyl)-1H-pyrrolo[2,3-b]pyridin-6-yl)cyclopropanecarboxamide], the IC50 was > 200 nM.
For `CCS(=O)(=O)Nc1ccc(-c2cc(NC(=O)C3CC3)nc3[nH]ccc23)cn1` [Example 148, N-(4-(6-(ethylsulfonamido)pyridin-3-yl)-1H-pyrrolo[2,3-b]pyridin-6-yl)cyclopropanecarboxamide], the IC50 lay within 20 to 200 nM.
Then `CCS(=O)(=O)Nc1ccc(-c2cc(NC(=O)C3CC3)nc3[nH]ccc23)nc1F` [Example 149, N-(4-(5-(ethylsulfonamido)-6-fluoropyridin-2-yl)-1H-pyrrolo[2,3-b]pyridin-6-yl)cyclopropanecarboxamide], with > 200 nM; and `CCCS(=O)(=O)Nc1ccc(-c2cc(NC(=O)C3CC3)nc3[nH]ccc23)nc1F` [Example 150, N-(4-(6-fluoro-5-(propylsulfonamido)pyridin-2-yl)-1H-pyrrolo[2,3-b]pyridin-6-yl)cyclopropanecarboxamide], with > 200 nM.
Turning to `CCS(=O)(=O)NC1CC=C(c2cc(NC(=O)C3CC3)nc3[nH]ccc23)CC1` (stereo not shown) [Example 151, N-(4-(4-(ethylsulfonamido)cyclohex-1-en-1-yl)-1H-pyrrolo[2,3-b]pyridin-6-yl)cyclopropanecarboxamide], the concentration for half-maximal inhibition (IC50) fell in the range of 20 to 200 nM.
Consider `CCCS(=O)(=O)NC1CC=C(c2cc(NC(=O)C3CC3)nc3[nH]ccc23)CC1` (stereo not shown) [Example 152, N-(4-(4-(propylsulfonamido)cyclohex-1-en-1-yl)-1H-pyrrolo[2,3-b]pyridin-6-yl)cyclopropanecarboxamide], for which the IC50 was in the range of 20 to 200 nM.
Then `O=C(Nc1cc(C2=CCC(NS(=O)(=O)C(F)(F)F)CC2)c2cc[nH]c2n1)C1CC1` (stereo not shown) [Example 153, N-(4-(4-((trifluoromethyl)sulfonamido)cyclohex-1-en-1-yl)-1H-pyrrolo[2,3-b]pyridin-6-yl)cyclopropanecarboxamide], with 20 to 200 nM.
For the molecule `O=C(Nc1cc(C2=CCC(NS(=O)(=O)C3CC3)CC2)c2cc[nH]c2n1)C1CC1` (stereo not shown) [Example 154, N-(4-(4-(cyclopropanesulfonamido)cyclohex-1-en-1-yl)-1H-pyrrolo[2,3-b]pyridin-6-yl)cyclopropanecarboxamide], the IC50 was in the range of 20 to 200 nM.
Consider `N#CCCS(=O)(=O)NC1CC=C(c2cc(NC(=O)C3CC3)nc3[nH]ccc23)CC1` (stereo not shown) [Example 155, N-(4-(4-((2-cyanoethyl)sulfonamido)cyclohex-1-en-1-yl)-1H-pyrrolo[2,3-b]pyridin-6-yl)cyclopropanecarboxamide], for which the IC50 was < 20 nM.
With `N#CCC1(CS(=O)(=O)NC2CC=C(c3cc(NC(=O)C4CC4)nc4[nH]ccc34)CC2)CC1` (stereo not shown) [Example 156, N-(4-(4-(((1-(cyanomethyl)cyclopropyl)methyl)sulfonamido)cyclohex-1-en-1-yl)-1H-pyrrolo[2,3-b]pyridin-6-yl)cyclopropanecarboxamide] the figure was < 20 nM; with `N#CC1(CS(=O)(=O)NC2CC=C(c3cc(NC(=O)C4CC4)nc4[nH]ccc34)CC2)CC1` (stereo not shown) [Example 157, N-(4-(4-(((1-cyanocyclopropyl)methyl)sulfonamido)cyclohex-1-en-1-yl)-1H-pyrrolo[2,3-b]pyridin-6-yl)cyclopropanecarboxamide], < 20 nM.
With `N#CCCCS(=O)(=O)NC1CC=C(c2cc(NC(=O)C3CC3)nc3[nH]ccc23)CC1` (stereo not shown) [Example 158, N-(4-(4-((3-cyanopropyl)sulfonamido)cyclohex-1-en-1-yl)-1H-pyrrolo[2,3-b]pyridin-6-yl)cyclopropanecarboxamide] the figure was < 20 nM; with `O=C(Nc1cc(C2=CCC(NS(=O)(=O)CCCF)CC2)c2cc[nH]c2n1)C1CC1` (stereo not shown) [Example 159, N-(4-(4-((3-fluoropropyl)sulfonamido)cyclohex-1-en-1-yl)-1H-pyrrolo[2,3-b]pyridin-6-yl)cyclopropanecarboxamide], < 20 nM; with `C=CCS(=O)(=O)NC1CC=C(c2cc(NC(=O)C3CC3)nc3[nH]ccc23)CC1` (stereo not shown) [Example 160, N-(4-(4-(allylsulfonamido)cyclohex-1-en-1-yl)-1H-pyrrolo[2,3-b]pyridin-6-yl)cyclopropanecarboxamide], < 20 nM.
`O=C(Nc1cc(C2=CCC(NS(=O)(=O)CC3CC3)CC2)c2cc[nH]c2n1)C1CC1` (stereo not shown) [Example 161, N-(4-(4-((cyclopropylmethyl)sulfonamido)cyclohex-1-en-1-yl)-1H-pyrrolo[2,3-b]pyridin-6-yl)cyclopropanecarboxamide]: the IC50 is < 20 nM.
`O=C(Nc1cc(C2=CCC(NS(=O)(=O)c3ccc(F)c(F)c3)CC2)c2cc[nH]c2n1)C1CC1` (stereo not shown) [Example 162, N-(4-(4-((3,4-difluorophenyl)sulfonamido)cyclohex-1-en-1-yl)-1H-pyrrolo[2,3-b]pyridin-6-yl)cyclopropanecarboxamide]: the half-maximal inhibitory concentration (IC50) is < 20 nM.
For `O=C(Nc1cc(C2=CCC(NS(=O)(=O)c3cccc(F)c3)CC2)c2cc[nH]c2n1)C1CC1` (stereo not shown) [Example 163, N-(4-(4-((3-fluorophenyl)sulfonamido)cyclohex-1-en-1-yl)-1H-pyrrolo[2,3-b]pyridin-6-yl)cyclopropanecarboxamide], the IC50 is < 20 nM.
Then `N#Cc1ccc(S(=O)(=O)NC2CC=C(c3cc(NC(=O)C4CC4)nc4[nH]ccc34)CC2)cc1` (stereo not shown) [Example 164, N-(4-(4-((4-cyanophenyl)sulfonamido)cyclohex-1-en-1-yl)-1H-pyrrolo[2,3-b]pyridin-6-yl)cyclopropanecarboxamide], with < 20 nM.
Regarding `O=C(Nc1cc(C2=CCC(NS(=O)(=O)C3CCC3)CC2)c2cc[nH]c2n1)C1CC1` (stereo not shown) [Example 165, N-(4-(4-(cyclobutanesulfonamido)cyclohex-1-en-1-yl)-1H-pyrrolo[2,3-b]pyridin-6-yl)cyclopropanecarboxamide], the IC50 is < 20 nM.
For `CCS(=O)(=O)N1CC=C(c2cc(NC(=O)C3CC3)nc3[nH]ccc23)CC1` [Example 166, N-(4-(1-(ethylsulfonyl)-1,2,3,6-tetrahydropyridin-4-yl)-1H-pyrrolo[2,3-b]pyridin-6-yl)cyclopropanecarboxamide], the IC50 lay in the range of 20 to 200 nM.
With `O=C(Nc1cc(C2=CCN(S(=O)(=O)CCCF)CC2)c2cc[nH]c2n1)C1CC1` [Example 167, N-(4-(1-((3-fluoropropyl)sulfonyl)-1,2,3,6-tetrahydropyridin-4-yl)-1H-pyrrolo[2,3-b]pyridin-6-yl)cyclopropanecarboxamide] the figure was 20 to 200 nM.
On to `O=C(Nc1cc(C2=CCN(S(=O)(=O)C3CC3)CC2)c2cc[nH]c2n1)C1CC1` [Example 168, N-(4-(1-(cyclopropylsulfonyl)-1,2,3,6-tetrahydropyridin-4-yl)-1H-pyrrolo[2,3-b]pyridin-6-yl)cyclopropanecarboxamide], for which the IC50 was 20 to 200 nM.
Consider `O=C(Nc1cc(C2=CCN(S(=O)(=O)CC3CCOCC3)CC2)c2cc[nH]c2n1)C1CC1` [Example 169, N-(4-(1-(((tetrahydro-2H-pyran-4-yl)methyl)sulfonyl)-1,2,3,6-tetrahydropyridin-4-yl)-1H-pyrrolo[2,3-b]pyridin-6-yl)cyclopropanecarboxamide], for which the IC50 was > 200 nM.
As to `N#CCCCS(=O)(=O)N1CC=C(c2cc(NC(=O)C3CC3)nc3[nH]ccc23)CC1` [Example 170, N-(4-(1-((3-cyanopropyl)sulfonyl)-1,2,3,6-tetrahydropyridin-4-yl)-1H-pyrrolo[2,3-b]pyridin-6-yl)cyclopropanecarboxamide], the half-maximal inhibitory concentration (IC50) lay in the range of 20 to 200 nM.
With `N#CCC1(CS(=O)(=O)N2CC=C(c3cc(NC(=O)C4CC4)nc4[nH]ccc34)CC2)CC1` [Example 171, N-(4-(1-(((1-(cyanomethyl)cyclopropyl)methyl)sulfonyl)-1,2,3,6-tetrahydropyridin-4-yl)-1H-pyrrolo[2,3-b]pyridin-6-yl)cyclopropanecarboxamide], the IC50 was 20 to 200 nM.
Then `N#CC1(CS(=O)(=O)N2CC=C(c3cc(NC(=O)C4CC4)nc4[nH]ccc34)CC2)CC1` [Example 172, N-(4-(1-(((1-cyanocyclopropyl)methyl)sulfonyl)-1,2,3,6-tetrahydropyridin-4-yl)-1H-pyrrolo[2,3-b]pyridin-6-yl)cyclopropanecarboxamide], with 20 to 200 nM.

The record behind these values is US11524968B2, “Heterocyclic compound as a protein kinase inhibitor” (HK inno.N Corporation, priority 2017, dated 2022).
